The source of these data is patent US20120302530A1, “23-HYDROXY-BETULINIC ACID DERIVATIVES, PREPARATION METHODS AND USES THEREOF” (priority 2009, published 2012).

SMILES strings stand for the structures. Where two headings read alike, the source gives them in different places.

One series relates to HIV-1IIIB. Description: Inhibition of HIV-1IIIB induced syncytium formation in C8166 cells. In kind it is cell-based. The following applies: for therapeutic index TI: HIV-1IIIB syncytium, C8166, TI=IC50/EC50; for EC50: HIV-1IIIB, C8166 cells, third day after infection. From the text:
(3) The inhibition effects of compounds zhangnan-5, zhangnan-7 and zhangnan-8 to virus HIV-1IIIB inducing C8166 cell to form syncytium: (see JIANG, Haiou; WANG, Xu; L I, Rurun; CHEN, Dagang; B I, Kunlong, Experimental Research on Recipe Sanhuangsan Capsule for Resisting AIDS virus in Vitro, [J]. Shandong Journal of Traditional Chinese medicine, 2005.8 (1):21-26).
The test sample is double diluted with culture medium on the 96-hole flat culture plate. There are 8 dilutions in total. Each hole 100 ul has 2 duplicate holes. In addition, there are positive control group, cell control group and virus control group. 80 ul C8166 cell of 4×10^5/ml is added into each hole, and then 20 ul virus HIV-1IIIB supernatant is added into each hole. The final volume of each hole is 200 ul. The sample is placed in incubator of 370C, 5% CO2 for cultivation. […] Under the inverted microscope, the number of syncytium formed by virus HIV-1IIIB inducing C8166 cell is counted. […] The following formula is used to calculate the inhibition ratio of the sample to syncytium.
Inhibition ratio formed by syncytium (%)=(1−experimental hole syncytium number/control hole syncytium number)×100%

In series [1] the test system is C8166 (human T cell line). Description: Toxicity to C8166 cells (MTT, day 7). In kind it is cell-based. The following applies: C8166, day 7, MTT. Here is the method:
(§1) (2) Toxicity of compounds zhangnan-5, zhangnan-7 and zhangnan-8 to C8166 and PBMC cells:
(§2) C8166 (human T cell line) and PBM (using lymphocyte isolation liquid to separate from normal human peripheral blood, and adhered mononuclear cell separated from PBMC) cells in exponential phase are taken. The cells are resuspended after centrifugal (1000 r•min-1, 10 min), and the concentrations are adjusted to 4×10^5/ml and 2×10^6/ml. The test samples are double diluted on the 96-hole cell culture plate. In total 6 gradients are set, each having 3 duplicate holes. In addition, positive control group and cell control group are set. Upon adding cell suspended liquid, the test samples are placed in incubator of 370C and 5% CO2 for incubation. On the seventh (7th) day, MTT method is used to determine toxicity of the samples to cells.
(§3) Inhibition ratio of cell growth (%)=(1−experimental hole OD value/control hole (OD value)×100%

A further series deals with HIV-1Ada-M. Description: ELISA of HIV-1Ada-M p24 antigen expression in PBMC. Conditions: for therapeutic index TI: HIV-1Ada-M p24, PBMC, TI=IC50/EC50. In kind it is cell-based. From the text: (4) Quantitative Enzyme Linked Immunoadsorbent method (EIISA) detecting inhibiting effects of compounds to virus HIV-1Ada-Mp24 expression: (see JIANG, Haiou; WANG, Xu; L I, Rurun; CHEN, Dagang; B I, Kunlong, Experimental Research on Recipe Sanhuangsan Capsule Resisting AIDS Virus in Vitro, [J], Shandong Journal of Traditional Chinese medicine, 2005.8 (1):21-26).
Multi-heads sample injector is used to conduct triple dilution to the sample on the 96-hole culture plate. There are 6 dilutions, in which each dilution has 3 duplicate holes, and each hole is 100 ul. […] On the 96-hole flat culture plate, each hole is added with 25 ul virus stock solution containing 1000˜5000 pg/well P24 antigen, which is sufficiently blended. 75 ul mononuclear cell PBMC suspension liquid is added (3×10^5 cell numbers/hole). Upon placing in incubator of 37° C., 5% CO2 to the third day, 100 ul of culture medium is added to each hole. On the 7th day, cell culture supernatant is collected for p24 antigen test. According to p24 kit description, ELISA method is used to measure the virus HIV-1 p24 antigen concentration of each sample cell culture hole supernatant. The following formula is used to calculate the inhibition ratio of sample to virus.
Inhibition ratio of sample to virus p24 antigen (%)=(1−experimental hole OD value/cell+virus control hole OD value)×100%. Reed and Mueneh method is used to calculate EC50 of the test sample, and to further calculate the therapeutic index (TI) (TI=IC50/EC50). […] The positive control SCH-C, 23-hydroxyl-betulinic acid, compounds zhangnan-5, zhangnan-7 and zhangnan-8 all reach an inhibition ratio above 50% within the tested range. The positive control SCH-C inhibits HIV-1Ada-M p24 antigen expression. […] In addition, the inhibition effect to HIV-1Ada-M has significant dose-effect relationship with its concentration.

Another series relates to normal person PBMC. Description: Toxicity to PBMC cells (MTT, day 7). In kind it is cell-based, human. The following applies: day 7, MTT. Here is the method:
as §1, §2, §3

The conditions of series [2]: when even reaching 500 mg/kg; cited from earlier work.

The term EC50 denotes the midpoint of the concentration-response curve. For `C=C(C)[C@@H]1CC[C@]2(C(=O)O)CC[C@]3(C)[C@H](CC[C@@H]4[C@@]5(C)CC[C@H](O)[C@@](C)(CO)[C@@H]5CC[C@]43C)[C@@H]12` [23-hydroxyl-betulinic acid, reference compound], the “therapeutic index TI” value is recorded as 13 with HIV-1IIIB and 7.8 in the series on HIV-1Ada-M. For the same compound, the EC50 with HIV-1IIIB worked out at 1200 ± 230 nM; with HIV-1Ada-M (HIV-1Ada-M, PBMC, 7th day, ELISA, read-out: EC50, inhibition of p24 antigen expression), 1900 ± 390 nM. Further, the IC50 in series [1] (read-out: IC50 (50% inhibition concentration) to C8166 cell) was 0.0151 ± 0.00357 mM; in the series on normal person PBMC, 14.9 ± 3.46 µM.
In the case of `Cc1cn([C@H]2C[C@H](N=[N+]=[N-])[C@@H](CO)O2)c(=O)[nH]c1=O` [AZT, reference compound], in the series on HIV-1IIIB, the “therapeutic index TI” value worked out at 2473 and the EC50 stood at 1390 nM. Besides, the IC50 in series [1] (positive control, read-out: toxicity to 50% of C8166 cells) is 3.44 mM.
Consider `C=C(C)[C@@H]1CC[C@]2(C(=O)O)CC[C@]3(C)[C@H](CC[C@@H]4[C@@]5(C)CC[C@H](O)C(C)(C)[C@@H]5CC[C@]43C)[C@@H]12` [Betulinic acid, 3β-hydroxy-1up-20(29)-ene-28-oic acid], for which the toxic reaction result in series [2] is “no obvious toxic reaction”.
As to `CCO/N=C(\c1ccc(Br)cc1)C1CCN(C2(C)CCN(C(=O)c3c(C)cc[n+]([O-])c3C)CC2)CC1` [SCH-C, reference compound], the “therapeutic index TI” value in the series on HIV-1Ada-M amounted to 2583.
